Tests used:
[1] = test system: respiratory syncytial virus (RSV); set-up: method as in PMID 24882250; settings: read-out: anti-RSV IC50; cited from earlier work
[2] = test system: K-562 (human myeloid leukemia cell); assay: CCK-8 anti-proliferation assay, K-562; type: cell-based; settings: 48 h, mean ± SEM; for inhibition at 20 µM: K562, at 20 µM; for Inhibition Rate (%): at 20 µM
Protocol: (§1) One concentration was set for each sample during preliminary screening and three multiple holes were set for each concentration. Eight concentration gradients were set for each sample for IC50 determination and three multiple holes were set for each concentration. […] The absorbance was measured at 450 nm with an enzyme labeling instrument and the original data and results were recorded. […] Doxorubicin was used as a positive control. All the cancer cell lines were obtained from Qingdao AC biotechnology Co., LTD, Qingdao, China.

[3] = test system: 786-O (human renal cancer cell); assay: CCK-8 anti-proliferation assay, 786-O; type: cell-based; settings: 48 h, mean ± SEM, read-out: Inhibition Rate (%); for inhibition at 20 µM: 786-0, at 20 µM
Protocol: as §1

[4] = test system: HeLa (human cervical cancer cell); assay: CCK-8 anti-proliferation assay, HeLa; type: cell-based; settings: 48 h, mean ± SEM, read-out: Inhibition Rate (%)
Protocol: as §1

[5] = test system: MCF7 (human breast cancer cell); assay: CCK-8 anti-proliferation assay, MCF7; type: cell-based; settings: 48 h, mean ± SEM, read-out: Inhibition Rate (%)
Protocol: as §1

[6] = test system: 293T (human embryonic kidney cell); assay: CCK-8 anti-proliferation assay, 293T; type: cell-based; settings: HEK-293T, 48 h, mean ± SEM, read-out: Inhibition Rate (%)
Protocol: as §1

[7] = test system: A-375 (human melanoma cell); assay: CCK-8 anti-proliferation assay, A-375; type: cell-based; settings: 48 h, mean ± SEM, read-out: Inhibition Rate (%)
Protocol: as §1

[8] = test system: HCT 116 (human colorectal cancer cell); assay: CCK-8 anti-proliferation assay, HCT 116; type: cell-based; settings: 48 h, mean ± SEM, read-out: Inhibition Rate (%)
Protocol: as §1

[9] = test system: CAL-62 (human thyroid anaplastic carcinoma cell); assay: CCK-8 anti-proliferation assay, CAL-62; type: cell-based; settings: 48 h, mean ± SEM, read-out: Inhibition Rate (%)
Protocol: as §1

[10] = test system: PATU8988T (human pancreatic cancer cell); assay: CCK-8 anti-proliferation assay, PATU8988T; type: cell-based; settings: PaTu 8988t, 48 h, mean ± SEM, read-out: Inhibition Rate (%)
Protocol: as §1

[11] = test system: respiratory syncytial virus (RSV); assay: Anti-RSV activity assay (RT-qPCR); type: cell-based; settings: human respiratory syncytial virus, HEp-2 cells, mean ± SEM, read-out: Inhibition rate (%) of RSV replication
Source text: Remdesivir was selected and evaluated as a positive control.

[12] = test system: 5637 (HTB-9) (human bladder cancer cell); assay: CCK-8 anti-proliferation assay, 5637 (HTB-9); type: cell-based; settings: for IC50: CCK-8, 48 h, read-out: IC50 against 5637 (HTB-9) cells
Protocol: as §1

[13] = test system: HOS (human osteosarcoma cell); assay: CCK-8 anti-proliferation assay, HOS; type: cell-based; settings: 48 h, mean ± SEM, read-out: Inhibition Rate (%)
Protocol: as §1

[14] = test system: A-673 (Ewing sarcoma); assay: CCK-8 anti-proliferation assay, A-673; type: cell-based; settings: Homo sapiens, 48 h, mean ± SEM, read-out: Inhibition Rate (%); for inhibition at 20 µM: A673, at 20 µM
Protocol: as §1

[15] = test system: L-02 (human hepatocyte cell); assay: CCK-8 anti-proliferation assay, L-02; type: cell-based; settings: L-02 normal liver cells, 48 h, mean ± SEM, read-out: Inhibition Rate (%)
Protocol: as §1

[16] = test system: HepG2 (human liver carcinoma cell); assay: CCK-8 anti-proliferation assay, HepG2; type: cell-based; settings: for IC50: CCK-8, 48 h, read-out: IC50 against HepG2 cells
Protocol: as §1

[17] = test system: TE-1 (human esophageal cancer cell); assay: CCK-8 anti-proliferation assay, TE-1; type: cell-based; settings: 48 h, mean ± SEM, read-out: Inhibition Rate (%)
Protocol: as §1

[18] = test system: DU145 (human prostate carcinoma cell); assay: CCK-8 anti-proliferation assay, DU145; type: cell-based; settings: 48 h, mean ± SEM, read-out: Inhibition Rate (%); for inhibition at 20 µM: DU-145, at 20 µM
Protocol: as §1

[19] = test system: GBC-SD (human gallbladder carcinoma cell); assay: CCK-8 anti-proliferation assay, GBC-SD; type: cell-based; settings: 48 h, mean ± SEM, read-out: Inhibition Rate (%)
Protocol: as §1

[20] = test system: MKN-45 (human gastric cancer cell); assay: CCK-8 anti-proliferation assay, MKN-45; type: cell-based; settings: 48 h, mean ± SEM, read-out: Inhibition Rate (%)
Protocol: as §1

[21] = test system: A549 (human lung adenocarcinoma cell); assay: CCK-8 anti-proliferation assay, A549; type: cell-based; settings: A549, 48 h, mean ± SEM, read-out: Inhibition Rate (%)
Protocol: as §1

[22] = test system: SF126 (human glioblastoma cell); assay: CCK-8 anti-proliferation assay, SF126; type: cell-based; settings: 48 h, mean ± SEM, read-out: Inhibition Rate (%); for inhibition at 20 µM: SF-126, at 20 µM
Protocol: as §1

[23] = Homo sapiens, read-out: Inhibition Rate (%)
[24] = 5637 (HTB-9), 48 h, mean ± SEM, read-out: Inhibition Rate (%)
[25] = 48 h, mean ± SEM, read-out: Inhibition Rate (%)

| SMILES | IC50 [1] [µM] | inhibition at 20 µM [2, 23] [%] | Inhibition Rate (%) [2] | inhibition at 20 µM [3] [%] | inhibition at 20 µM [4] [%] | inhibition at 20 µM [5] [%] | inhibition at 20 µM [6] [%] | inhibition at 20 µM [7] [%] | inhibition at 20 µM [8] [%] | inhibition at 20 µM [9] [%] | inhibition at 20 µM [10] [%] | inhibition at 10 µM [11] [%] | inhibition at 20 µM [12, 24] [%] | inhibition at 20 µM [13] [%] | inhibition at 20 µM [14] [%] | inhibition at 20 µM [15] [%] | inhibition at 20 µM [16, 25] [%] | inhibition at 20 µM [17] [%] | inhibition at 20 µM [18] [%] | inhibition at 20 µM [19] [%] | further results |
| --- | --- | --- | --- | --- | --- | --- | --- | --- | --- | --- | --- | --- | --- | --- | --- | --- | --- | --- | --- | --- | --- |
| CC(=O)OC[C@@H](C)[C@H](C)/C=C/[C@@H](C)[C@H]1CC[C@H]2[C@@H]3CC(=O)[C@@]4(O)C[C@@H](O)CC[C@]4(C)[C@H]3CC[C@]12C [compound 2] | 0.19 | – | – | – | – | – | – | – | – | – | – | – | – | – | – | – | – | – | – | – | – |
| C[C@@H](CO)CCC[C@@H](C)[C@H]1[C@@H](O)C[C@H]2[C@@H]3CC=C4C[C@@H](O)CC[C@]4(C)[C@H]3CC[C@]12C [compound 8, (3S,8S,9S,10R,13S,14S,16S,17R)-17-((2R,6R)-7-Hydroxy-6-Methylheptan-2-yl)-10,13-Dimethyl-2,3,4,7,8,9,10,11,12,13,14,15,16,17-Tetradecahydro-1H-Cyclopenta[a]Phenanthrene-3,16-diol] | – | 7.2 ± 2.2 | did not exhibit any anti-proliferative activities | 69 ± 1.8 | 49.7 ± 3.6 | 31.2 ± 1.4 | 42.4 ± 2.1 | 72.3 ± 0.6 | 61.7 ± 2.1 | 28 ± 4 | 62.7 ± 2 | 24.9 ± 2.6 | 75.1 ± 0.8 | 2.7 ± 4 | 51.9 ± 2.8 | 8.1 ± 1.3 | 76.8 ± 1.3 | 34 ± 3.8 | 26 ± 1.7 | 26.8 ± 1.3 | IC50 [12]: 5.8 µM; IC50 [16]: 12 µM; inhibition at 20 µM [20]: 54.4 ± 1.9%; inhibition at 20 µM [21]: 53 ± 2.7%; inhibition at 20 µM [22]: 30.7 ± 2.4% |
| CCC(CC)COC(=O)[C@H](C)N[P@](=O)(OC[C@H]1O[C@@](C#N)(c2ccc3c(N)ncnn23)[C@H](O)[C@@H]1O)Oc1ccccc1 [Remdesivir, reference compound] | – | – | – | – | – | – | – | – | – | – | – | 91.8 ± 0.5 | – | – | – | – | – | – | – | – | – |
| CC(=O)OC[C@H](C)[C@H](C)/C=C/[C@@H](C)[C@H]1CC[C@H]2[C@@H]3CC(=O)[C@@]4(O)C[C@@H](O)CC[C@]4(C)[C@H]3CC[C@]12C [compound 3] | 0.19 | – | – | – | – | – | – | – | – | – | – | – | – | – | – | – | – | – | – | – | – |
| C[C@@H](CO)CCC[C@@H](C)[C@H]1CC[C@H]2[C@@H]3CC=C4C[C@@H](O)CC[C@]4(C)[C@H]3CC[C@]12C [compound 11, (3S,8S,9S,10R,13R,14S,17R)-17-((2R,6R)-7-Hydroxy-6-Methylheptan-2-yl)-10,13-Dimethyl-2,3,4,7,8,9,10,11,12,13,14,15,16,17-Tetradecahydro-1H-Cyclopenta[a]Phenanthren-3-ol] | – | 13.1 ± 1.8 | did not exhibit any anti-proliferative activities | 65.9 ± 2.4 | 14.9 ± 2.2 | 14.1 ± 0.5 | -18.2 ± 1.3 | 60.8 ± 1.4 | 19.8 ± 1.4 | 12.5 ± 3.9 | 63.3 ± 4.2 | 22.2 ± 3.9 | 80.5 ± 2.5 | 9.3 ± 4.3 | 26.5 ± 2.1 | 2.8 ± 2.1 | 64.2 ± 2.5 | 27.7 ± 0.6 | 18.4 ± 3.7 | 10.4 ± 3.3 | IC50 [12]: 3 µM; IC50 [16]: 5.6 µM; inhibition at 20 µM [20]: 53.8 ± 1.6%; inhibition at 20 µM [21]: ≤ 50%; inhibition at 20 µM [22]: 11.7 ± 2.9% |
| CC(=O)OC[C@H](C)CCC[C@@H](C)[C@H]1CC[C@H]2[C@@H]3C[C@@H](O)[C@@]4(O)C[C@@H](O)CC[C@]4(C)[C@H]3CC[C@]12C [compound 13, (2R,6R)-2-Methyl-6-((3S,5R,6R,8S,9S,10R,13R,14S,17R)-3,5,6-Trihydroxy-10,13-Dimethylhexadecahydro-1H-Cyclopenta[a]Phenanthren-17-yl) Heptyl Acetate] | – | 7.8 ± 2.3 | did not exhibit any anti-proliferative activities | 20.5 ± 1.3 | -2.3 ± 1.7 | 19 ± 1.1 | 37.3 ± 2.7 | 54.8 ± 1.7 | 19.3 ± 1.2 | 7.5 ± 2.7 | 53.6 ± 1.7 | 13.6 ± 2.1 | 52.2 ± 4.5 | 52.6 ± 1.5 | 66.3 ± 3.2 | 6.3 ± 3.2 | 58 ± 1.2 | 13.5 ± 2.6 | -0.4 ± 3.9 | 6 ± 2.4 | melting point: 201 to 202 °C; inhibition at 20 µM [20]: 52.7 ± 2.4%; inhibition at 20 µM [22]: 4.7 ± 1.3% |
| CC(=O)OCC(C)/C=C/[C@@H](C)[C@H]1CC[C@H]2[C@@H]3CC(=O)[C@@]4(O)C[C@@H](O)CC[C@]4(C)[C@H]3CC[C@]12C (some centres unmarked) [compound 4] | 3.23 | – | – | – | – | – | – | – | – | – | – | – | – | – | – | – | – | – | – | – | – |
| COc1cccc2c1C(=O)c1c(O)c3c(c(O)c1C2=O)C[C@@](O)(C(=O)CO)C[C@@H]3O[C@H]1C[C@H](N)[C@H](O)[C@H](C)O1 [Doxorubicin, reference compound] | – | – | – | – | – | – | – | – | – | – | – | – | – | – | – | – | – | – | – | – | inhibition at 10 µM ([2]; Homo sapiens, K562, at 10 µM, read-out: Inhibition Rate (%)): 67.5 ± 1%; inhibition at 10 µM ([3]; 786-0, at 10 µM): 86.3 ± 1.9%; inhibition at 10 µM ([4]; at 10 µM): 97.7 ± 0.4%; inhibition at 10 µM ([5]; at 10 µM): 55.9 ± 1.7%; inhibition at 10 µM ([6]; at 10 µM): 88.2 ± 1.2%; inhibition at 10 µM ([7]; at 10 µM): 95.3 ± 1%; inhibition at 10 µM ([8]; at 10 µM): 88.9 ± 1.5%; inhibition at 10 µM ([9]; at 10 µM): 92.6 ± 1.3%; inhibition at 10 µM ([10]; at 10 µM): 98.4 ± 0.6%; inhibition at 10 µM ([12]; 5637 (HTB-9), at 10 µM, 48 h, mean ± SEM, read-out: Inhibition Rate (%)): 99.3 ± 0.3%; inhibition at 10 µM ([13]; at 10 µM): 98.4 ± 0.9%; inhibition at 10 µM ([14]; A673, at 10 µM): 98.7 ± 0.6%; inhibition at 10 µM ([15]; at 10 µM): 99.2 ± 0.1%; inhibition at 10 µM ([16]; at 10 µM, 48 h, mean ± SEM, read-out: Inhibition Rate (%)): 95.9 ± 1.9%; inhibition at 10 µM ([17]; at 10 µM): 83.3 ± 1.1%; inhibition at 10 µM ([18]; DU-145, at 10 µM): 76.4 ± 1.6%; inhibition at 10 µM ([19]; at 10 µM): 76.7 ± 1.5%; inhibition at 10 µM ([20]; at 10 µM): 89.8 ± 0.5%; inhibition at 10 µM ([21]; at 10 µM): 75.9 ± 2.5%; inhibition at 10 µM ([22]; SF-126, at 10 µM): 97.1 ± 1% |
| CC(=O)OC[C@@H](C)C/C=C/[C@@H](C)[C@H]1CC[C@H]2[C@@H]3CC(=O)[C@@]4(O)C[C@@H](O)CC[C@]4(C)[C@H]3CC[C@]12C [compound 1] | 0.78 | – | – | – | – | – | – | – | – | – | – | – | – | – | – | – | – | – | – | – | – |

Reference: PMC10053440, “Semi-Synthesis and Biological Evaluation of 25(R)-26-Acetoxy-3β,5α-Dihydroxycholest-6-One” (Marine Drugs, 2023)
